Patent publication US10729135B2, “Methods of controlling pests using terpendoles” (priority 2017, dated 2020)

Test system: green peach aphids (Myzus persicae)
Test: LC50 biological efficacy assay on green peach aphids, aerosolized dilutions on infested radish leaves
Assay type: in vivo
Details: for LC50: concentration for 50% control over 24-48 hours, infested radish leaves, 500 μl aerosolized dilution; for control of green peach aphids (in words): summary of Table 1
Procedure: Biological efficacy assays utilizing terpendoles were conducted on green peach aphids (Myzus persicae). Specifically, terpendole A, terpendole C, terpendole J, terpendole K, terpendole N, terpendole O and terpendole P were each separately applied in serial dilutions to determine the concentration at which 50% control of green peach aphids occurred over a period of 24-48 hours (“LC50”). Radish leaves infested with green peach aphids were treated, top and bottom, with a total of 500 μl of an aerosolized terpendole dilution. Treated, aphid infested leaves were held in greenhouse conditions and evaluated for efficacy at 24 and 48 h.

Structure (SMILES) | LC50 | control of green peach aphids (in words)
CC(C)=C[C@H]1O[C@H]2[C@H]3O[C@@]34C(=CC[C@@]3(C)[C@@]4(O)CC[C@H]4Cc5c([nH]c6ccccc56)[C@@]43C)O[C@@H]2C(C)(C)O1 [Terpendole K, terpendole K] | 44 ppm | effectively controlled
CC(C)=C[C@@H]1O[C@H]2[C@@H](O[C@@H]3CC[C@]4(C)[C@](O)(CC[C@H](CC5(O)C(=O)Nc6cccc(CC7OC7(C)C)c65)[C@@]4(C)O)[C@@]34O[C@@H]24)C(C)(C)O1 (stereo partly drawn) [Terpendole N, terpendole N] | 4 ppm | effectively controlled
CC(C)=CCc1cccc2[nH]c3c(c12)C[C@@H]1CC[C@@]2(O)[C@@]45O[C@@H]4[C@@H]4O[C@H](C6OC6(C)C)OC(C)(C)[C@H]4O[C@H]5CC[C@]2(C)[C@@]31C (stereo partly drawn) [Terpendole O, terpendole O] | 105 ppm | effectively controlled
CC1(C)OC1[C@H]1O[C@H]2[C@H]3O[C@@]34[C@H](CC[C@@]3(C)[C@@]4(O)CC[C@H]4Cc5c([nH]c6ccccc56)[C@@]43C)O[C@@H]2C(C)(C)O1 (stereo partly drawn) [Terpendole A, terpendole A] | 7 ppm | effectively controlled
CC(C)=CCOC(C)(C)[C@H]1O[C@H]2CC[C@@]3(C)[C@@](O)(CC[C@H]4Cc5c([nH]c6ccccc56)[C@@]43C)[C@]23O[C@@H]3[C@@H]1O [Terpendole J, terpendole J] | 5,183 ppm | effectively controlled
CC(C)=CCc1ccc2c3c([nH]c2c1)[C@@]1(C)[C@@H](CC[C@@]2(O)[C@@]45O[C@@H]4[C@@H]4O[C@H](C6OC6(C)C)OC(C)(C)[C@H]4O[C@H]5CC[C@@]21C)C3 (stereo partly drawn) [Terpendole P, terpendole P] | 67 ppm | effectively controlled
